Our source for the hemolysis and MIC values is ChEMBL document CHEMBL4196049, “β,γ-diamino acids as building blocks for new analogues of Gramicidin S: Synthesis and biological activity” (Eur J Med Chem, 2018).

Data set [1] can be described thus: Hemolytic activity in human erythrocytes at 50 ug/ml after 30 mins relative to control. The class given is ADME, cell-based, Erythrocyte. The conditions noted are these: read-out: Activity.
Data set [2] is described as follows: Hemolytic activity in human erythrocytes at 100 ug/ml after 30 mins relative to control. The class given is ADME, cell-based, Erythrocyte. The note with it: read-out: Activity.
Data set [3] relates to Enterococcus faecalis. Kind of data set: Antibacterial activity against Enterococcus faecalis CIP 103214 after 48 hrs by two-fold serial dilution method. The class given is functional. The note with it: CIP 103214, 48 h.
For data set [4], the system named is Pseudomonas aeruginosa. In words: Antibacterial activity against Pseudomonas aeruginosa CIP 82.118 ATCC 9027 after 48 hrs by two-fold serial dilution method. It counts as functional. The conditions noted are these: CIP 82.118 ATCC 9027, 48 h.
Data set [5] relates to Streptococcus salivarius. In words: Antibacterial activity against Streptococcus salivarius CIP 102503 after 48 hrs by two-fold serial dilution method. The conditions noted are these: CIP 102503, 48 h. It counts as functional.
The test system of data set [6] is Bacillus subtilis. In words: Antibacterial activity against Bacillus subtilis subsp. subtilis CIP 52.65 after 48 hrs by two-fold serial dilution method. The class given is functional. The note with it: CIP 52.65, 48 h.
Data set [7] relates to Escherichia coli. Kind of data set: Antibacterial activity against Escherichia coli CIP 53.126 ATCC 8739 after 48 hrs by two-fold serial dilution method. It counts as functional. The note with it: ATCC 8739 = CIP 53.126, 48 h.
In data set [8] the test system is Enterococcus faecalis. In words: Antibacterial activity against Enterococcus faecalis CIP 103015 after 48 hrs by two-fold serial dilution method. It counts as functional. The conditions noted are these: CIP 103015, 48 h.
Data set [9] relates to Staphylococcus aureus. In words: Antibacterial activity against Staphylococcus aureus subsp. aureus CIP 4.83 ATCC 6538 after 48 hrs by two-fold serial dilution method. The note with it: CIP 4.83 ATCC 6538, 48 h. It counts as functional.
Data set [10] relates to Bacillus cereus. In words: Antibacterial activity against Bacillus cereus CIP 66.24 after 48 hrs by two-fold serial dilution method. It counts as functional. The note with it: CIP 66.24, 48 h.
In data set [11] the test system is Enterococcus faecium. Kind of data set: Antibacterial activity against Enterococcus faecium CIP 103014 after 48 hrs by two-fold serial dilution method. The class given is functional. The conditions noted are these: CIP 103014, 48 h.

Converted amounts (≈) assume the structure as drawn. Non-standard residues stand in square brackets, D forms with d. Residues, ends and D or L forms follow the SMILES beside them. Orn = NCCC[C@H](N)C(=O)O

One may read the MIC as the lowest concentration that inhibits growth of the organism. A high value points to a less susceptible organism.

As to `CC(C)C[C@@H]1NC(=O)[C@H](CCCN)NC(=O)[C@H](C(C)C)NC(=O)[C@@H]2CCCN2C(=O)[C@@H](Cc2ccccc2)NC(=O)[C@H](CC(C)C)NC(=O)[C@H](CCCN)NC(=O)[C@H](C(C)C)NC(=O)[C@@H]2CCCN2C(=O)[C@@H](Cc2ccccc2)NC1=O` (cyclo(L[dF]PV[Orn]L[dF]PV[Orn])), the hemolysis at 0.5 h, 50 ug/ml in [1] turned out to be 74%. The hemolysis at 0.5 h, 100 ug/ml in data set [2] was 83%.
`CC(C)C[C@@H]1NC(=O)[C@H](CCCN)NC(=O)[C@H](C(C)C)NC(=O)[C@@H]2CCCN2C(=O)[C@@H](Cc2ccccc2)NC(=O)[C@H](CC(C)C)NC(=O)[C@H](CCCN)NC(=O)[C@H](C(C)C)NC(=O)[C@@H]2CCCN2C(=O)[C@@H](Cc2ccccc2)NC1=O` (cyclo(V[Orn]L[dF]PV[Orn]L[dF]P)): the MIC in data set [3] was 3.12 µg/mL (≈ 2.74 µM); in data set [4] it was ≥ 100 µg/mL; in [5] it was 3.12 µg/mL (≈ 2.74 µM); in data set [6] it was 3.12 µg/mL (≈ 2.74 µM); in [7], 12.5 µg/mL (≈ 11 µM); in data set [8] it was 3.12 µg/mL (≈ 2.74 µM). The MIC in data set [9] stood at 3.12 µg/mL (≈ 2.74 µM); in data set [10], 6.25 µg/mL (≈ 5.48 µM); in data set [11], 3.12 µg/mL (≈ 2.74 µM).
